Patent publication US20150252048A1, “SUBSTITUTED N-(3-PYRIMIDIN-4-YL)PHENYL)ACRYLAMIDE ANALOGS AS TYROSINE RECEPTOR KINASE BTK INHIBITORS” (UNIVERSITY OF UTAH RESEARCH FOUNDATION, priority 2012, published 2015)
“And” between values parts separate entries of the source, which are not always exact repeats. Equal values may be shown once. Read-outs that look alike come from different tables or passages of the source.

Assays:
[1] = molecular target: T1, recombinant full-length human BTK kinase (Homo sapiens, UniProt Q06187); test: BTK kinase assay: ADP generation assay (ADP-Glo); type: biochemical; conditions: 60 nM BTK, MBP substrate, 60 min
T1 construct: recombinant full-length human BTK kinase with a (His)6 tag; (His)6; purchased Invitrogen Corporation, Carlsbad, Calif
T1 sequence (Q06187 whole entry): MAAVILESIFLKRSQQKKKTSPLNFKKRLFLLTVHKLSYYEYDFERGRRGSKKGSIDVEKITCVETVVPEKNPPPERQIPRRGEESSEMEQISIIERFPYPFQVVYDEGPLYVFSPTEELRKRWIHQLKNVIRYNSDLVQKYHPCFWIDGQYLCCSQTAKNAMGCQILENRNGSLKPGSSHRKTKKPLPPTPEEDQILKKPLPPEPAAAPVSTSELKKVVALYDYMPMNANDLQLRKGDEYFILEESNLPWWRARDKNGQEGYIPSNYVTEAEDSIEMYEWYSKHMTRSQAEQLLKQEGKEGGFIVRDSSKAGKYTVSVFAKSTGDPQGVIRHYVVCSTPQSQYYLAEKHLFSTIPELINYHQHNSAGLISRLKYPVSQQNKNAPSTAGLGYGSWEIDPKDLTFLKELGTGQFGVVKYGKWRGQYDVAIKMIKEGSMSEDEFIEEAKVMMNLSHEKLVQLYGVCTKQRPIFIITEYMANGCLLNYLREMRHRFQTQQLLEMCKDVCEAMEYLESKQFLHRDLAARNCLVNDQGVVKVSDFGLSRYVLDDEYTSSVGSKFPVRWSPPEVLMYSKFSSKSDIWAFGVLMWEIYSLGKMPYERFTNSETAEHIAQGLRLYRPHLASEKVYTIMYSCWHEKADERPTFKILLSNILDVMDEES
Experimental: The primary assay for compound inhibitory activity was the ADP generation assay described herein. Test compounds were diluted to desired concentrations in kinase reaction buffer and briefly incubated with recombinant full-length human BTK kinase with a (His)6 tag (81.3 kDa; Invitrogen Corporation, Carlsbad, Calif.). The assay as described is based on volumes used in a standard 384 well format using solid, white-wall plates. The reaction was subsequently initiated by the addition of ATP and myelin basic protein (MBP) substrate (Millipore Corporation, Waltham, Mass.). Composition of the assay reaction mixture ([…]) was: 5% v/v DMSO, 60 nM BTK, 1.6 µM ATP, and 20 µM MBP substrate. After incubation at room temperature for 60 min, […] (Promega Corporation, Madison, Wis.) was added to each well and incubated for an additional 40 minutes. The reagent stopped the kinase reaction and depleted the unconsumed ATP. Kinase Detection reagent ([…]; Promega Corporation) was then added to each well. The Kinase Detection reagent comprises reagents to convert ADP to ATP and provide luciferase and luciferin to detect ATP. Luminescence was measured on an EnVision microplate reader (PerkinElmer). The amount of luminescence from each reaction is directly correlated with BTK kinase activity. Percent inhibition and IC50 values were calculated by comparing enzyme activity in drug-treated wells to the appropriate controls.
(§1) IC50 values are determined using GraphPad Prism 5 software. The data were entered as an X-Y plot into the software as percent inhibition for each concentration of the drug. The concentration values of the drug were log transformed and the nonlinear regression was carried out using the “sigmoidal dose-response (variable slope)” option within the GraphPad software to model the data and calculate IC50 values. The IC50 values reported are the concentration of drug at which 50% inhibition was reached.
(§2) Activity (IC50) was determined in the BTK assays describe herein below, i.e. either the ADP generation assay and/or the time-resolved FRET assay, and the data are shown in Table III. The compound number corresponds to the compound numbers used in Table I. In the table below, “ADP Assay” refers to the assay which measures production of ADP resulting from use of ATP by the kinase; and “HTRF Assay” refers to the time resolved-FRET kinase assay described in the examples. Multiple values in a given column indicate the results of more than one assay for the given compound. Representative data of the type used to determine the IC50 values for the ADP assay in Table III are shown in FIG. 8 for compounds 3, 4, and 5.

Microsomal stability [2] = type: in vitro ADME, human; conditions: for Compound Remaining: human microsomes 0.5 mg protein/mL, 1 μM
Experimental: (§3) Data were also obtained for the stability of Compound 3 when incubated with a microsomal preparation. Drug metabolism can occur, at least in part, in cellular microsomes, and thus the assay assesses the stability of drug to metabolic modification. The concentration of compound 3 was 1 μM in the assay system and the indicated microsomes were present at 0.5 mg total protein per milliliter. The concentration of intact drug was determined at the indicated timepoints using a LC-MS/MS assay. The enzyme activity of the microsomes used in this study were assessed using a positive control, testosterone.

Microsomal stability [3] = type: in vitro ADME, mouse; conditions: for Compound Remaining: mouse microsomes 0.5 mg protein/mL, 1 μM; for half-life at 1 μM: mouse, microsomes
Experimental: as §3

BTK [4] = molecular target: T2, BTK (Homo sapiens, UniProt Q06187); test: Specific kinase IC50 assay; type: biochemical; conditions: 1 μM ATP, 10-dose, duplicate
T2 sequence (Q06187 whole entry): as above
Experimental: In addition, the compound IC50 was determined in six specific kinase assays. The kinases that the compound was assayed against were as follows: BMX/ETK, BTK, EGFR (T790M), ERBB4/HER4, JAK3, and TEC. The assays were carried out in the presence of 1 μM ATP and were conducted in a 10-dose format in duplicate with three-fold serial dilutions starting at 10 μM. The calculated IC50s are shown in Table IX, and representative dose response curves from these assays are shown in FIG. 5 (Panels A: BMX/ETK kinase assay; Panel B: BTK kinase assay; Panel C: EGFR (T790M) kinase assay; Panel D: ERBB4/HER4 kinase assay; Panel E: JAK3 kinase assay; and Panel F: TEC kinase assay). The data in Figure show the individual assay duplicate assay results a line fit to the data; 100% activity is the activity in the […] of test compound. […].

BTK [5] = molecular target: T2, BTK; test: BTK kinase assay: time resolved-FRET (HTRF) assay; type: biochemical; design: recombinant full-length human BTK kinase with a (His)6 tag; (His)6; purchased Invitrogen Corporation, Carlsbad, Calif; conditions: 10 nM BTK, 60 μM ATP, 1 μM substrate
Experimental: Activity of compounds was routinely confirmed using a secondary assay as described herein. The secondary assay was a time resolved-FRET kinase assay. Test compound are diluted to desired concentrations in kinase reaction buffer and briefly incubated with BTK kinase (as described above; Invitrogen). The reaction is initiated by the addition of ATP and enzyme substrate, HTRF® KinEASE™-TK Substrate-biotin (Cisbio US, Bedford, Mass.). The composition of the reaction (10 μl) was: 1% v/v DMSO, 10 nM BTK, 60 μM ATP, and 1 μM substrate. After incubation at room temperature for 60 min, the enzyme reaction is stopped by EDTA-containing buffer, which also contains europium-labeled (Eu^3+-Cryptate) anti-phosphotyrosine antibody (Cisbio) and Streptavidin-XL665 (Cisbio). The europium-labeled antibody generates a time-resolved FRET signal with the Stepavidin-XL665, which binds to the biotinylated TK substrate through the streptavidin conjugate when the substrate is phosphorylated. After one hour incubation at room temperature, fluoresence was measured with excitation of 320 nm and dual emission of 615 and 665 nm on an EnVision microplate reader. Signal is expressed in terms of a TR-FRET ratio (665:615).
as §1, §2

IC50 [1]: 5 nM and 6 nM and 8 nM
half-life at 1 μM (Microsomal stability [2]; human microsomes): 16 min
Compound Remaining (Microsomal stability [2]; 0 min): 100 % of initial amount
Compound Remaining (Microsomal stability [2]; 10 min): 61.1 % of initial amount
Compound Remaining (Microsomal stability [2]; 20 min): 36.0 % of initial amount
Compound Remaining (Microsomal stability [2]; 30 min): 20.4 % of initial amount
Compound Remaining (Microsomal stability [2]; 60 min): 7.89 % of initial amount
microsomal CLint at 1 μM (Microsomal stability [2]; human microsomes, read-out: CLinit (intrinsic clearance)): 85 µL/min/mg
Compound Remaining (Microsomal stability [3]; 0 min): 100 % of initial amount
Compound Remaining (Microsomal stability [3]; 10 min): 24.3 % of initial amount
Compound Remaining (Microsomal stability [3]; 20 min): 6.12 % of initial amount
Compound Remaining (Microsomal stability [3]; 30 min): 1.62 % of initial amount
Compound Remaining (Microsomal stability [3]; 60 min): 0.72 % of initial amount
microsomal CLint at 1 μM (Microsomal stability [3]; mouse microsomes, read-out: CLinit (intrinsic clearance)): 160 µL/min/mg
half-life at 1 μM (Microsomal stability [3]; mouse microsomes, expressed as < shortest incubation time, read-out: t1/2): < 10 min
half-life at 1 μM (Microsomal stability [3]; mouse microsomes, read-out: t1/2, calculated half-life in parentheses): 8.6 min
IC50 (BTK [4]): 12.3 nM
IC50 (BTK [5]): 8 nM
Compound: C=CC(=O)Nc1cccc(-c2nc(Nc3cccc(N4CCOCC4)c3)nc3[nH]ncc23)c1 [Compound 3, N-(3-(6-((3-morpholinophenyl)amino)-1H-pyrazolo[3,4-d]pyrimidin-4-yl)phenyl)acrylamide]
